Literature values in US9044531B2, “Vascular closure device” (Cordis Corporation, priority 2007, dated 2015).

System: S. aureus
Settings: measured in a suitable growth medium; Bhargava et al., American Journal of Infection Control, June 1996

Oc1cc(Cl)ccc1Oc1ccc(Cl)cc1Cl [2,4,4′-trichloro-2′-hydroxydiphenyl ether]
minimum inhibitory concentration (MIC) against S. aureus: 0.01 ppm
